Experimental data taken from patent US8063051B2, “9-substituted-8-oxo-adenine compounds as toll-like receptor (TLR7) modulators” (AstraZeneca AB, priority 2007, dated 2011).

Target: T1, Recombinant human TLR7 (Homo sapiens, UniProt Q9NYK1)
T1 construct: expressed in transfected cells; host or cells: HEK293 cell line stably expressing the pNiFty2-SEAP reporter plasmid; TLR7 in vector pUNO, blasticidin selection
T1 sequence (Q9NYK1 27-1049): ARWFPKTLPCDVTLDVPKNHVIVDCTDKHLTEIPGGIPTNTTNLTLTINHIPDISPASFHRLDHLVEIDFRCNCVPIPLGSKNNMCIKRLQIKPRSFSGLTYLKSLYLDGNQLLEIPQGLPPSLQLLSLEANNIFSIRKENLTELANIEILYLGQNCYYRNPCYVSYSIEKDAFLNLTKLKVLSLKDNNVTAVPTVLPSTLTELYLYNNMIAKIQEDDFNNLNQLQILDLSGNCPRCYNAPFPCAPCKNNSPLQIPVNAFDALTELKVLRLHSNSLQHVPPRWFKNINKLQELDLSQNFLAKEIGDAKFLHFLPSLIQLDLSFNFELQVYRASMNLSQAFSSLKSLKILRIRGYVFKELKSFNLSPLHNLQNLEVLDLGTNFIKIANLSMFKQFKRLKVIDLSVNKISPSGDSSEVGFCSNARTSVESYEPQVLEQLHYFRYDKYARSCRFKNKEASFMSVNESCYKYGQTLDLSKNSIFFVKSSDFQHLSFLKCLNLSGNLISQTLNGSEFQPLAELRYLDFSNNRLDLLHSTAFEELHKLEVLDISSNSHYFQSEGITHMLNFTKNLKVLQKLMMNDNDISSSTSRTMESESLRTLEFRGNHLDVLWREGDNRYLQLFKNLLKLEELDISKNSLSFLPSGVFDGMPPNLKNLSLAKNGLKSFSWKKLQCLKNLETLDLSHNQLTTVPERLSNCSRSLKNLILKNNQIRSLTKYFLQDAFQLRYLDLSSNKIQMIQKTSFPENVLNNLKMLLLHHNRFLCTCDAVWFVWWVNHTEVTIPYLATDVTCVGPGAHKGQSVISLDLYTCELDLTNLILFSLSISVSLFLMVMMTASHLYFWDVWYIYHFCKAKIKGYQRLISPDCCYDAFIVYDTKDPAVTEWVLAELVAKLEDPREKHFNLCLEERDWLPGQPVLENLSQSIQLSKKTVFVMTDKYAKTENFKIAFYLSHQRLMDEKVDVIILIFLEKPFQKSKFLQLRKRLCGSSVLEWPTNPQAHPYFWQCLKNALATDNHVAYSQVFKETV
Assay: Human TLR7 assay (SEAP reporter in HEK293 cells)
Format: cell-based
Conditions: HEK293 cell line stably expressing human TLR7 and pNiFty2-SEAP reporter; SEAP induction after overnight incubation at 37° C., 0.1% (v/v) DMSO
Excerpt: Recombinant human TLR7 was stably expressed in a HEK293 cell line already stably expressing the pNiFty2-SEAP reporter plasmid; integration of the reporter gene was maintained by selection with the antibiotic zeocin. The most common variant sequence of human TLR7 (represented by the EMBL sequence AF240467) was cloned into the mammalian cell expression vector pUNO and transfected into this reporter cell-line. Transfectants with stable expression were selected using the antibiotic blasticidin. In this reporter cell-line, expression of secreted alkaline phosphatase (SEAP) is controlled by an NFkB/ELAM-1 composite promoter comprising five NFkB sites combined with the proximal ELAM-1 promoter. TLR signaling leads to the translocation of NFkB and activation of the promoter results in expression of the SEAP gene. TLR7-specific activation was assessed by determining the level of SEAP produced following overnight incubation of the cells at 37° C. with the standard compound in the presence of 0.1% (v/v) dimethylsulfoxide (DMSO). Concentration dependent induction of SEAP production by compounds was expressed as the concentration of compound which produced half of the maximal level of SEAP induction for that compound (pEC50).

`CCCCOc1nc(N)c2[nH]c(=O)n(CCCN(Cc3ccccc3)C(C)=O)c2n1` [Example 1, N-[3-(6-Amino-2-butoxy-8-oxo-7,8-dihydro-9H-purin-9-yl)propyl]-N-benzylacetamide] and `CCCCOc1nc(N)c2[nH]c(=O)n(CCCN(Cc3ccccc3)C(=O)COC)c2n1` [Example 2, N-[3-(6-Amino-2-butoxy-8-oxo-7,8-dihydro-9H-purin-9-yl)propyl]-N-benzyl-2-methoxyacetamide] are within 1.5-fold of each other in EC50: 63.1 nM for the first, 50.1 nM for the second.

First: CCCCOc1nc(N)c2[nH]c(=O)n(CCCN(Cc3ccccc3)C(=O)CCC(=O)OC)c2n1 [Example 3, Methyl 4-[[3-(6-amino-2-butoxy-8-oxo-7,8-dihydro-9H-purin-9-yl)propyl](benzyl)amino]-4-oxobutanoate]
Second: CCCCOc1nc(N)c2[nH]c(=O)n(CCCN(Cc3ccccc3)C(=O)CCOC)c2n1 [Example 4, N-[3-(6-Amino-2-butoxy-8-oxo-7,8-dihydro-9H-purin-9-yl)propyl]-N-benzyl-3-methoxypropanamide]
The EC50 of the first is 2-fold lower: 39.8 nM for the first, 79.4 nM for the second.

Compared with `CCCCOc1nc(N)c2[nH]c(=O)n(CCCN(Cc3ccccc3)C(=O)CCC(=O)N(C)C)c2n1` [Example 5, N-[3-(6-Amino-2-butoxy-8-oxo-7,8-dihydro-9H-purin-9-yl)propyl]-N-benzyl-N′,N′-dimethylsuccinamide], `CCCCOc1nc(N)c2[nH]c(=O)n(CCCN(Cc3ccccc3)C(=O)CCN(C)C)c2n1` [Example 10, N-[3-(6-Amino-2-butoxy-8-oxo-7,8-dihydro-9H-purin-9-yl)propyl]-N-benzyl-N^3,N^3-dimethyl-β-alaninamide] is 2.5-fold lower in EC50: 79.4 nM for the first, 31.6 nM for the second. The second is the more potent here.

Compared with `CCCCOc1nc(N)c2[nH]c(=O)n(CCCN(Cc3ccccc3)C(=O)Cc3ccc(S(C)(=O)=O)cc3)c2n1` [Example 6, N-[3-(6-Amino-2-butoxy-8-oxo-7,8-dihydro-9H-purin-9-yl)propyl]-N-benzyl-2-[4-(methylsulfonyl)phenyl]acetamide], `CCCCOc1nc(N)c2[nH]c(=O)n(CCCN(Cc3ccccc3)C(=O)CCc3cnccn3)c2n1` [Example 9, N-[3-(6-Amino-2-butoxy-8-oxo-7,8-dihydro-9H-purin-9-yl)propyl]-N-benzyl-3-pyrazin-2-ylpropanamide] is 1.6-fold lower in EC50: 79.4 nM for the first, 50.1 nM for the second. The second is the more potent here.

Compared with `CCCCOc1nc(N)c2[nH]c(=O)n(CCCN(Cc3ccccc3)C(=O)CN3CCN(Cc4ccccc4)CC3)c2n1` [Example 7, N-[3-(6-Amino-2-butoxy-8-oxo-7,8-dihydro-9H-purin-9-yl)propyl]-N-benzyl-2-(4-benzylpiperazin-1-yl)acetamide], `CCCCOc1nc(N)c2[nH]c(=O)n(CCCN(Cc3ccccc3)C(=O)Cn3nc(C)nc3C)c2n1` [Example 8, N-[3-(6-Amino-2-butoxy-8-oxo-7,8-dihydro-9H-purin-9-yl)propyl]-N-benzyl-2-(3,5-dimethyl-1H-1,2,4-triazol-1-yl)acetamide] is 20-fold higher in EC50: 7.94 nM for the first, 158 nM for the second. The first is the more potent here.
